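Following 48 hours of exposure in 96-well plates, responses at five concentrations were used to interpolate endpoints linearly. GI50 is the concentration that inhibits growth by half.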 The source made the active and inactive calls. No stated cut-off is given here; in the data, active = GI50 up to about 1.1 µM and inactive = higher.
Tests used:
Assay in all cases: NCI-60 cell line screen, 48 h
786-0 = test system: 786-0
HCT-15 = test system: HCT-15
HL-60 = test system: HL-60
HOP-62 = test system: HOP-62
HOP-92 = test system: HOP-92
IGROV-1 = test system: IGROV-1
M14 = test system: M14
MOLT-4 = test system: MOLT-4
NCI-H522 = test system: NCI-H522
OVCAR-8 = test system: OVCAR-8
RXF 393 = test system: RXF 393
SK-MEL-5 = test system: SK-MEL-5
SK-OV-3 = test system: SK-OV-3
SN12C = test system: SN12C
SNB-19 = test system: SNB-19
SR = test system: SR
UACC-257 = test system: UACC-257
MDA-MB-231 = test system: MDA-MB-231
NCI/ADR-RES = test system: NCI/ADR-RES
MDA-N = test system: MDA-N

SMILES	GI50 (786-0)	GI50 (HCT-15) [µM]	GI50 (HL-60)	GI50 (HOP-62)	GI50 (HOP-92)	GI50 (IGROV-1)	GI50 (M14)	GI50 (MOLT-4)	GI50 (NCI-H522)	GI50 (OVCAR-8)	GI50 (RXF 393)	GI50 (SK-MEL-5)	GI50 (SK-OV-3)	GI50 (SN12C)	GI50 (SNB-19)	GI50 (SR)	GI50 (UACC-257)	GI50 (MDA-MB-231)	GI50 (NCI/ADR-RES)	GI50 (MDA-N)
Cn1cc(C(=O)NCCC(=N)N)cc1NC(=O)C1=[N+](C)C=C(NC(=O)c2cccc(C(=O)NC3=CC(C(=O)Nc4cc(C(=O)NCCC(=N)N)cn4C)=[N+](C)C3)c2)C1	37.8 µM (inactive)	> 100	> 100 µM (inactive)	> 100 µM (inactive)	> 100 µM (inactive)	> 100 µM (inactive)	> 100 µM (inactive)	> 100 µM (inactive)	> 100 µM (inactive)	> 100 µM (inactive)	35.3 µM (inactive)	42.3 µM (inactive)	> 100 µM (inactive)	88.5 µM (inactive)	> 100 µM (inactive)	> 100 µM (inactive)	93.1 µM (inactive)	–	–	–
CCCC[N+](CCCC)(CCCC)CCCC.O=S(=O)([O-])ON=C1c2ccccc2-c2ccccc21	> 100 µM (inactive)	10	36 µM (inactive)	> 100 µM (inactive)	> 100 µM (inactive)	> 100 µM (inactive)	> 100 µM (inactive)	> 100 µM (inactive)	47.2 µM (inactive)	> 100 µM (inactive)	> 100 µM (inactive)	61.5 µM (inactive)	> 100 µM (inactive)	> 100 µM (inactive)	> 100 µM (inactive)	> 100 µM (inactive)	> 100 µM (inactive)	> 100 µM (inactive)	> 100 µM (inactive)	–
COc1cc2c(oc(=O)c3c4occc4cc(OC)c23)c2cccc(OCc3ccccc3)c12	41.4 µM (inactive)	> 100	65.8 µM (inactive)	> 100 µM (inactive)	> 100 µM (inactive)	> 100 µM (inactive)	80.2 µM (inactive)	> 100 µM (inactive)	> 100 µM (inactive)	> 100 µM (inactive)	78.3 µM (inactive)	> 100 µM (inactive)	> 100 µM (inactive)	> 100 µM (inactive)	> 100 µM (inactive)	> 100 µM (inactive)	> 100 µM (inactive)	–	–	–
COc1ccc(CCN2CCC(C#N)(c3ccc(OC)c(OC)c3)CC2)cc1OC	> 100 µM (inactive)	> 100	> 100 µM (inactive)	> 100 µM (inactive)	13.5 µM (inactive)	> 100 µM (inactive)	> 100 µM (inactive)	> 100 µM (inactive)	84.9 µM (inactive)	> 100 µM (inactive)	49.1 µM (inactive)	> 100 µM (inactive)	> 100 µM (inactive)	> 100 µM (inactive)	> 100 µM (inactive)	> 100 µM (inactive)	> 100 µM (inactive)	–	–	–
COc1ccc(/C=C2\CCC(CNc3ccc(S(N)(=O)=O)cc3)C2=O)cc1 (stereo not drawn)	4.9 µM (inactive)	4.71	2.15 µM (inactive)	37.8 µM (inactive)	8.53 µM (inactive)	20 µM (inactive)	15.5 µM (inactive)	7.69 µM (inactive)	4.52 µM (inactive)	18 µM (inactive)	20.4 µM (inactive)	16.3 µM (inactive)	> 100 µM (inactive)	18.6 µM (inactive)	32 µM (inactive)	1.9 µM (inactive)	20 µM (inactive)	16.6 µM (inactive)	31.6 µM (inactive)	–
CCOC(=O)c1c2c(n(-c3ccc(C)cc3)c1C)-c1ccccc1C(=O)C2(C(=O)OCC)C(=O)OCC	50.6 µM (inactive)	36.1	6.34 µM (inactive)	78.7 µM (inactive)	27.6 µM (inactive)	30.3 µM (inactive)	60.3 µM (inactive)	1.71 µM (inactive)	25.1 µM (inactive)	29.2 µM (inactive)	26.5 µM (inactive)	19.2 µM (inactive)	> 76.6 µM (inactive)	34.4 µM (inactive)	> 92.7 µM (inactive)	1.31 µM (inactive)	33.8 µM (inactive)	32.1 µM (inactive)	33.4 µM (inactive)	–
Cc1cccc(Nc2cn(CCOc3ccccc3)c(=O)[nH]c2=O)c1	34.2 µM (inactive)	49.9	–	29.8 µM (inactive)	35.6 µM (inactive)	16.7 µM (inactive)	47.2 µM (inactive)	36.9 µM (inactive)	–	–	34.8 µM (inactive)	25.8 µM (inactive)	–	24.6 µM (inactive)	97.1 µM (inactive)	> 100 µM (inactive)	43.7 µM (inactive)	–	1.73 µM (inactive)	32.4 µM (inactive)
CC(C)C1CN1CC(O)Cn1ccnc1[N+](=O)[O-] (stereo not drawn)	> 100 µM (inactive)	> 100	> 10 µM (inactive)	> 100 µM (inactive)	–	> 100 µM (inactive)	> 100 µM (inactive)	> 100 µM (inactive)	> 100 µM (inactive)	> 100 µM (inactive)	–	> 100 µM (inactive)	> 100 µM (inactive)	> 100 µM (inactive)	> 100 µM (inactive)	–	> 100 µM (inactive)	> 100 µM (inactive)	> 100 µM (inactive)	> 100 µM (inactive)
CC(C)=C=CP(=O)(O)c1ccccc1	> 100 µM (inactive)	> 100	> 100 µM (inactive)	> 100 µM (inactive)	> 100 µM (inactive)	> 100 µM (inactive)	> 100 µM (inactive)	–	> 100 µM (inactive)	> 100 µM (inactive)	–	> 100 µM (inactive)	> 100 µM (inactive)	> 100 µM (inactive)	> 100 µM (inactive)	> 100 µM (inactive)	> 100 µM (inactive)	–	> 100 µM (inactive)	> 100 µM (inactive)
Cc1cc(C)c(N)c(C)c1N	> 100 µM (inactive)	> 100	> 100 µM (inactive)	> 100 µM (inactive)	> 100 µM (inactive)	> 100 µM (inactive)	> 100 µM (inactive)	> 100 µM (inactive)	> 100 µM (inactive)	> 100 µM (inactive)	> 100 µM (inactive)	> 100 µM (inactive)	> 100 µM (inactive)	> 100 µM (inactive)	> 100 µM (inactive)	> 100 µM (inactive)	> 100 µM (inactive)	–	–	–
CC(C)(C)OC(=O)N1CCCC1C(=O)NCCNc1ccc(NCCNC(=O)C2CCCN2C(=O)OC(C)(C)C)c2c1C(=O)c1ccccc1C2=O (stereo not drawn)	14.8 µM (inactive)	13.9	> 100 µM (inactive)	15.4 µM (inactive)	13.8 µM (inactive)	13.9 µM (inactive)	15.8 µM (inactive)	9.86 µM (inactive)	13 µM (inactive)	5.83 µM (inactive)	–	0.112 µM (active)	19.7 µM (inactive)	–	< 0.01 µM (active)	14.3 µM (inactive)	14.5 µM (inactive)	13.2 µM (inactive)	10.4 µM (inactive)	–
O=[N+]([O-])c1cc(Cl)cc2cc(Cl)cnc12	> 100 µM (inactive)	> 100	62.4 µM (inactive)	> 100 µM (inactive)	> 100 µM (inactive)	7.35 µM (inactive)	> 100 µM (inactive)	> 100 µM (inactive)	> 100 µM (inactive)	98.9 µM (inactive)	> 100 µM (inactive)	62.5 µM (inactive)	–	> 100 µM (inactive)	> 100 µM (inactive)	63.8 µM (inactive)	61.4 µM (inactive)	60.1 µM (inactive)	> 100 µM (inactive)	–
[N-]=[N+]=Nc1c(Cl)c(=O)n(-c2ccccc2)c2ccccc12	18.3 µM (inactive)	20.7	40.3 µM (inactive)	24 µM (inactive)	19.3 µM (inactive)	15.6 µM (inactive)	16.6 µM (inactive)	8.43 µM (inactive)	–	–	16.4 µM (inactive)	3.15 µM (inactive)	37.2 µM (inactive)	22 µM (inactive)	28.9 µM (inactive)	31.4 µM (inactive)	24.2 µM (inactive)	–	24.2 µM (inactive)	24.5 µM (inactive)
COc1ccc(NC(=S)N/N=C/c2c(C)n(C)n(-c3ccccc3)c2=O)cc1	24.1 µM (inactive)	> 100	> 100 µM (inactive)	19.4 µM (inactive)	22.2 µM (inactive)	47.5 µM (inactive)	> 100 µM (inactive)	> 100 µM (inactive)	–	20.7 µM (inactive)	23 µM (inactive)	> 100 µM (inactive)	28.6 µM (inactive)	–	20.5 µM (inactive)	78.5 µM (inactive)	> 100 µM (inactive)	17.5 µM (inactive)	42.9 µM (inactive)	–
O=C1C=CC(=C(c2ccccc2)c2ccc(O)cc2)C=C1	18.7 µM (inactive)	14.2	8.15 µM (inactive)	21.9 µM (inactive)	18 µM (inactive)	8.41 µM (inactive)	24.2 µM (inactive)	3.33 µM (inactive)	13.7 µM (inactive)	16.9 µM (inactive)	14.2 µM (inactive)	11.5 µM (inactive)	–	13.6 µM (inactive)	13.8 µM (inactive)	7.45 µM (inactive)	16.9 µM (inactive)	15.2 µM (inactive)	32.7 µM (inactive)	–
CCCSc1ccc2[nH]c(/N=C/c3ccco3)cc2c1	40.2 µM (inactive)	24.3	29.8 µM (inactive)	6.64 µM (inactive)	81.8 µM (inactive)	36.5 µM (inactive)	44.6 µM (inactive)	–	22.2 µM (inactive)	31.5 µM (inactive)	22.3 µM (inactive)	13.7 µM (inactive)	30.5 µM (inactive)	29.9 µM (inactive)	> 100 µM (inactive)	1.68 µM (inactive)	33.6 µM (inactive)	–	27.5 µM (inactive)	–
